{"source": "paper PMC12930396", "about": "“Positive modulators of N-methyl-D-aspartate receptor: structure–activity relationship study on steroidal C-17 and C-20 oxime ethers” (RSC Advances, 2026)", "origin": "cited, not measured here", "target": "T1, GluN1/GluN2B receptors (Rattus norvegicus, UniProt P35439+Q00960)", "T1 construct": "expressed in transfected cells; host or cells: HEK293 cells (ATCC No. CRL-1573)", "T1 sequence (Q00960 27-1482, other chains not shown)": "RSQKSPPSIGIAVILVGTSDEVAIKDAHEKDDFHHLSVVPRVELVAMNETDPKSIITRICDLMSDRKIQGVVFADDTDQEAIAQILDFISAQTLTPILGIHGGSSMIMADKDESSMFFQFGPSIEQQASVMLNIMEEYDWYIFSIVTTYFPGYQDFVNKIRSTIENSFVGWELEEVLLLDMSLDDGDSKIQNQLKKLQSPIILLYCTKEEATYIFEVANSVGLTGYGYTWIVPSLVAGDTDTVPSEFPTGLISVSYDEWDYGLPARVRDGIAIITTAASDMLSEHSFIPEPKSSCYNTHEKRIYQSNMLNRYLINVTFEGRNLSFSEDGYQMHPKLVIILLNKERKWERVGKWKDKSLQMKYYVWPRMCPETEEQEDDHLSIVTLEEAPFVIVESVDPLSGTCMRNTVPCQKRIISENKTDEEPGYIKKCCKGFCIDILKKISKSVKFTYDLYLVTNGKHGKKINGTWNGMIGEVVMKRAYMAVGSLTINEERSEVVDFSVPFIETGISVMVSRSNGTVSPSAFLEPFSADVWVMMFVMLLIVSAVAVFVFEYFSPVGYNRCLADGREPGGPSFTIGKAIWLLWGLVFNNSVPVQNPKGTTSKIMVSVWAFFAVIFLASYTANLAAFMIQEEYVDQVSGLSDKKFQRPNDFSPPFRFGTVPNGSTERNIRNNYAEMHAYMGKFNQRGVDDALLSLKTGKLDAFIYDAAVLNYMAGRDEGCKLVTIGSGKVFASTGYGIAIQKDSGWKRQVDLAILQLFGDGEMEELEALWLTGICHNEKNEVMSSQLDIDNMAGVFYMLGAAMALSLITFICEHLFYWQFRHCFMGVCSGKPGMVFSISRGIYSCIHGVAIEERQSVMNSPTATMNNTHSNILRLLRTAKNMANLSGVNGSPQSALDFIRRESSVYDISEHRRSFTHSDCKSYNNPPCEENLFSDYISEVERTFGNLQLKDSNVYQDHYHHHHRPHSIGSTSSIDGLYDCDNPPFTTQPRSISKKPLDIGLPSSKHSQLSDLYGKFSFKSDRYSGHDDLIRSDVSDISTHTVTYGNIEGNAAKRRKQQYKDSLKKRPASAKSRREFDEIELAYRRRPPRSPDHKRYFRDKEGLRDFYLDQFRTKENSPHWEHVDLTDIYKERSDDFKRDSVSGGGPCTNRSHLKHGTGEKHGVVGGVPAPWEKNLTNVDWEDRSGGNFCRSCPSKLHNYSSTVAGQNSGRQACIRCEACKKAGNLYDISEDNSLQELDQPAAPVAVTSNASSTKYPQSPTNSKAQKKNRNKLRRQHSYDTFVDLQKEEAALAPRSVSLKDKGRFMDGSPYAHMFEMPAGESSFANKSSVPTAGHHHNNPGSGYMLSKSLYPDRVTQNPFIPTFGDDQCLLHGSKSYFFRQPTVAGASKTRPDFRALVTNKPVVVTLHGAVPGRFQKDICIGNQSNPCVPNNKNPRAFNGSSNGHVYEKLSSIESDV", "parameters": "method as in PMID 29708744", "details": "reference compound PES; cited from earlier work", "data": [{"substance": "20-oxo-pregn-5-en-3β-yl sulfate [PES]", "values": [{"measurement": "E max ± SEM", "value": "116 ± 10", "unit": "%"}, {"measurement": "h ± SEM (apparent Hill coefficient)", "value": "1.5 ± 0.1"}]}]}
